Values joined by “and” are separate entries in the source; they are usually repeats but may differ in a detail not shown here. Equal entries are not always repeated.
Assays:
[1] = biological target: T1, Recombinant human PAD4 (residues 1-663) (Homo sapiens, UniProt Q9UM07); experiment: PAD4 enzyme assay (FLINT NH3 release, BAEE substrate; conditions A or B); format: biochemical; conditions: PAD4 enzyme assay above or similar assays; read-out: mean pIC50 (converted)
T1 construct: Recombinant human PAD4 (residues 1-663) was expressed in E. coli as an N-terminal GST-tagged fusion protein; GST (N, cleaved yes); made in house; host or cells: E. coli
T1 sequence (Q9UM07 whole entry, the tested form may be a part): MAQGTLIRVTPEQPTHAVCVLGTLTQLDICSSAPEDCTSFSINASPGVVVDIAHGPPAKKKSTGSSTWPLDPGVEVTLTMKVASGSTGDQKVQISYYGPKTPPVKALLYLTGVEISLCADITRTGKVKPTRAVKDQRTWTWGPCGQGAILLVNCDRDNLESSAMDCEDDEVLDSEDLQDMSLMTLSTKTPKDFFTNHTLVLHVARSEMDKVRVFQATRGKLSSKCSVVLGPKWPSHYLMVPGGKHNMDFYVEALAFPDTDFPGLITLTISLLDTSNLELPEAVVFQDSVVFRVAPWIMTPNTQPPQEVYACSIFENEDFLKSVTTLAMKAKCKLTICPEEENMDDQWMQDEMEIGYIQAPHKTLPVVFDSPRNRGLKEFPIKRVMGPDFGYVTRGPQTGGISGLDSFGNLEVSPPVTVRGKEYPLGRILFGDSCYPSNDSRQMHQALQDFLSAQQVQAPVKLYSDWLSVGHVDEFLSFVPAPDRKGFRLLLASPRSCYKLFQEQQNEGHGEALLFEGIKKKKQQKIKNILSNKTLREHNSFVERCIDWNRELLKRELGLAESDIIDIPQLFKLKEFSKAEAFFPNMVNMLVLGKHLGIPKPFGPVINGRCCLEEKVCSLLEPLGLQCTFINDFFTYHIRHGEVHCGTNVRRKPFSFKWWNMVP
Description: During purification of the protein, the GST tag was removed by cleavage with PreScission Protease (GE Healthcare). Activity of the final PAD4 enzyme and batch consistency was determined by employing the enzyme in the FLINT NH3 release assay in the presence of N-a-benzoyl-L-arginine ethyl ester (BAEE) substrate and measuring the levels of NH3 release at a known substrate/enzyme concentration.
(§1) 8 μl of PAD4 enzyme diluted to an assay concentration of 75 nm in assay buffer (a): (100 mM HEPES, 50 mM NaCl, 2 mM DTT and 0.6 mg/ml BSA pH 8), or in assay buffer (b): (100 mM HEPES, 50 mM NaCl, 2 mM DTT, 7.5% glycerol and 1.5 mM CHAPS pH 8), and added to wells containing 0.1 μl of various concentrations of compound or DMSO vehicle (0.8% final) in a Greiner high volume 384 well black plate. Following 30 mins pre-incubation at rt, the reaction was initiated by the addition of 4 μl of substrate buffer containing 3 mM N-a-benzoyl-L-arginine ethyl ester (BAEE), 100 mM HEPES, 50 mM NaCl, 600 uM CaCl2 (2H2O) and 2 mM DTT, pH 8.0. The reaction was stopped after 100 mins with the addition of 38 μl stop/detection buffer containing 50 mM EDTA, 2.6 mM phthalaldehyde and 2.6 mM DTT.
as §1, with “of 30 nM” for “of 75 nm”, “buffer” for “buffer (a):”, “BSA” for “BSA pH 8), or in assay buffer (b): (100 mM HEPES, 50 mM NaCl, 2 mM DTT, 7.5% glycerol and 1.5 mM CHAPS”, “after 60” for “after 100”

[2] = biological target: T2, Recombinant human PAD2 (residues 1-665) (Homo sapiens, UniProt Q9Y2J8); experiment: PAD2 enzyme assay (FLINT NH3 release, BAEE substrate); format: biochemical; conditions: PAD2 enzyme assay above or similar assays; to assess selectivity for PAD4 over PAD2; read-out: mean pIC50 (converted)
T2 construct: Recombinant human PAD2 (residues 1-665) was expressed in baculovirus-infected Sf9 insect cells; 6His-FLAG (N); made in house; host or cells: baculovirus-infected Sf9 insect cells
T2 sequence (Q9Y2J8 whole entry, the tested form may be a part): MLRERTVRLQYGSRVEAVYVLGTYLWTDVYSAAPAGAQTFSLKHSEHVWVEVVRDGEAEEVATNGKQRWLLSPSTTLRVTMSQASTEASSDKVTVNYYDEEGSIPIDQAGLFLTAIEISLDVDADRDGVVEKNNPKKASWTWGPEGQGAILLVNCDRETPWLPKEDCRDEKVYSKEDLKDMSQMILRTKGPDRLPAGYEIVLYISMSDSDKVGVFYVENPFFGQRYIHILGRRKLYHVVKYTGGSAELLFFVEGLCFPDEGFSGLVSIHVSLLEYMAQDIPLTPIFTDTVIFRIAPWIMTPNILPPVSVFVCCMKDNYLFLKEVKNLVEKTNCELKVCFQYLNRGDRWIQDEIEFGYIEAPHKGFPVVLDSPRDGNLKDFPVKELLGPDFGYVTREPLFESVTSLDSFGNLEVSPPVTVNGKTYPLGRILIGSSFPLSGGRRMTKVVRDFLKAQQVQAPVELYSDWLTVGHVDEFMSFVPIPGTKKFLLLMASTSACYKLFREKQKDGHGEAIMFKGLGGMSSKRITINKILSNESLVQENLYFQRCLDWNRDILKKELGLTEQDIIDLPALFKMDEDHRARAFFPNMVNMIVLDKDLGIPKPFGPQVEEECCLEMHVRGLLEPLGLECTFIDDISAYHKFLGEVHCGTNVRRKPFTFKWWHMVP
Description: Activity of the final product was determined using a FLINT NH3 release assay.
8 μl of PAD2 enzyme diluted to an assay concentration of 30 nM in assay buffer (100 mM HEPES, 50 mM NaCl, 2 mM DTT, 7.5% glycerol and 1.5 mM CHAPS pH 8), and added to wells containing 0.1 μl of various concentrations of compound or DMSO vehicle (0.8% final) in a Greiner high volume 384 well black plate. […] The reaction was stopped after 90 mins with the addition of […] stop/detection buffer containing 50 mM EDTA, 2.6 mM phthalaldehyde and 2.6 mM DTT.

| IC50 [1] | IC50 [2] | SMILES |
| --- | --- | --- |
| 39.8 to 398 nM and 398 nM |  | Cn1c(-c2cc3ccccc3n2Cc2cccnc2)nc2cc(C(=O)N3CCC[C@@H](N)C3)ccc21 [Example 15, (3R)-1-({1-Methyl-2-[1-(3-pyridinylmethyl)-1H-indol-2-yl]-1H-benzimidazol-5-yl}carbonyl)-3-piperidinamine] |
| 39.8 to 398 nM and 398 nM |  | Cn1cc(Cn2c(-c3nc4cc(C(=O)N5CCC[C@@H](N)C5)ccc4n3C)cc3ccccc32)cn1 [Example 20b, (3R)-1-[(1-Methyl-2-{1-[(1-methyl-1H-pyrazol-4-yl)methyl]-1H-indol-2-yl}-1H-benzimidazol-5-yl)carbonyl]-3-piperidinamine] |
| 39.8 to 398 nM and 158 nM |  | Cn1c(-c2cc3ccccc3n2Cc2ccccc2)nc2cc(C(=O)N3CCC[C@@H](N)C3)ccc21 [Example 24, (3R)-1-({1-Methyl-2-[1-(phenylmethyl)-1H-indol-2-yl]-1H-benzimidazol-5-yl}carbonyl)-3-piperidinamine] |
| 39.8 to 398 nM and 158 nM | > 79400 nM | Cn1c(-c2cc3ccccc3n2CC2CC2)nc2cc(C(=O)N3CC[C@@H](O)[C@@H](N)C3)ccc21 [Example 65, ((3S,4R)-3-Amino-4-hydroxypiperidin-1-yl)(2-(1-(cyclopropylmethyl)-1H-indol-2-yl)-1-methyl-1H-benzo[d]imidazol-5-yl)methanone] |
|  | > 79400 nM | CCn1c(-c2nc3cc(C(=O)N4CCC[C@@H](N)C4)ccc3n2CC)cc2ccccc21 [Example 95, (R)-(3-Aminopiperidin-1-yl)(1-ethyl-2-(1-ethyl-1H-indol-2-yl)-1H-benzo[d]imidazol-5-yl)methanone] |
|  | > 79400 nM | CCn1c(-c2nc3cc(C(=O)N4CCC[C@@H](N)C4)cnc3n2C)cc2ccccc21 [Example 96, (R)-(3-Aminopiperidin-1-yl)(2-(1-ethyl-1H-indol-2-yl)-3-methyl-3H-imidazo[4,5-b]pyridin-6-yl)methanone] |
|  | ≥ 10000 nM | CCn1c(-c2nc3cc(C(=O)N4CCC[C@@H](N)C4)cc(OCCOC)c3n2C)cc2ccccc21 [Example 111, (R)-(3-Aminopiperidin-1-yl)(2-(1-ethyl-1H-indol-2-yl)-7-(2-methoxyethoxy)-1-methyl-1H-benzo[d]imidazol-5-yl)methanone] |
|  | ≥ 10000 nM | CCn1c(-c2nc3cc(C(=O)N4CCC[C@@H](N)C4)cc(OCC#N)c3n2C)cc2ccccc21 [Example 113, (R)-2-((5-(3-Aminopiperidine-1-carbonyl)-2-(1-ethyl-1H-indol-2-yl)-1-methyl-1H-benzo[d]imidazol-7-yl)oxy)acetonitrile] |
|  | > 79400 nM | CCn1c(-c2nc3cc(C(=O)N4CCC[C@@H](N)C4)cc(OCC(N)=O)c3n2C)cc2ccccc21 [Example 114, (R)-2-((5-(3-Aminopiperidine-1-carbonyl)-2-(1-ethyl-1H-indol-2-yl)-1-methyl-1H-benzo[d]imidazol-7-yl)oxy)acetamide] |
|  | ≥ 10000 nM | CCn1c(-c2nc3cc(C(=S)N4CCC[C@@H](N)C4)ccc3n2C)cc2ccccc21 [Example 135, (R)-(3-Aminopiperidin-1-yl)(2-(1-ethyl-1H-indol-2-yl)-1-methyl-1H-benzo[d]imidazol-5-yl)methanethione] |

From patent publication US10407407B2, “Benzoimidazole derivatives as PAD4 inhibitors” (GLAXOSMITHKLINE INTELLECTUAL PROPERTY DEVELOPMENT LIMITED, priority 2015, dated 2019)
